Reference: PubChem BioAssay AID282 (DTP/NCI, 2004)
Values joined by “and” are separate entries in the source; they are usually repeats but may differ in a detail not shown here. Identical values can stand only once. Toxic doses and inconclusive results are not listed.

System: BDF1 mice, L1210 terephthalanilide-resistant leukemia ip, survival T/C
Test: NCI In Vivo Anticancer Drug Screen. Data for tumor model L1210 Leukemia resistant to A Terephthalanilide; NSC 38280 (intraperitoneal) in B6D2F1 (BDF1) mice
Details: endpoint: mean survival time, higher = longer survival
Protocol: The antitumor activity of compounds was measured in mice bearing transplantable tumors. Survival or tumor size were measured and the results are expressed as the measurement made in the treated group (T) divided by the measurement made in the vehicle treated control group (C). The tumor model used in this assay is L1210 Leukemia resistant to A Terephthalanilide; NSC 38280 (intraperitoneal) in B6D2F1 (BDF1) mice

[1] = dose: 15.0 mg/kg/injection, schedule: Q01DX010 (ip), vehicle: saline
[2] = dose: 30.0 mg/kg/injection, schedule: Q01DX010 (ip), vehicle: saline
[3] = dose: 25.0 mg/kg/injection, schedule: Q01DX Z (ip), vehicle: carboxymethylcellulose (CMC)
[4] = dose: 50.0 mg/kg/injection, schedule: Q01DX Z (ip), vehicle: carboxymethylcellulose (CMC)
[5] = dose: 6.25 mg/kg/injection, schedule: Q01DX010 (ip), vehicle: saline
[6] = dose: 12.5 mg/kg/injection, schedule: Q01DX010 (ip), vehicle: saline
[7] = dose: 25.0 mg/kg/injection, schedule: Q01DX010 (ip), vehicle: saline
[8] = dose: 37.5 mg/kg/injection, schedule: Q01DX Z (ip), vehicle: carboxymethylcellulose (CMC)
[9] = dose: 50.0 mg/kg/injection, schedule: Q01DX010 (ip), vehicle: saline
[10] = dose: 7.5 mg/kg/injection, schedule: Q01DX010 (ip), vehicle: saline
[11] = dose: 62.5 mg/kg/injection, schedule: Q01DX010 (ip), vehicle: saline
[12] = dose: 125.0 mg/kg/injection, schedule: Q01DX010 (ip), vehicle: saline
[13] = dose: 250.0 mg/kg/injection, schedule: Q01DX010 (ip), vehicle: saline
[14] = dose: 500.0 mg/kg/injection, schedule: Q01DX010 (ip), vehicle: saline

In the case of `C[N+](C)(C)c1ncnc2nc[nH]c12`, the T/C [1] is reported as 92 % of control, the T/C [2] is reported as 110 % of control and the T/C (dose: 37.0 mg/kg/injection, schedule: Q01DX Z (ip), vehicle: saline) is reported as 102 % of control.

With `Cn1c(O)c(N=NC(N)=S)c2ccccc21` the T/C [3] was 93 % of control, the T/C [4] was 90 % of control and the T/C (dose: 100.0 mg/kg/injection, schedule: Q01DX Z (ip), vehicle: carboxymethylcellulose (CMC)) was 87 % of control. For the same compound, the T/C (dose: 200.0 mg/kg/injection, schedule: Q01DX Z (ip), vehicle: carboxymethylcellulose (CMC)) was 89 % of control.

In the case of `Oc1cc(CN(CCCl)CCCl)c(O)cc1CN(CCCl)CCCl`, the T/C (dose: 0.63 mg/kg/injection, schedule: Q01DX010 (ip), vehicle: saline) is reported as 116 % of control and 120 % of control, the T/C (dose: 1.0 mg/kg/injection, schedule: Q01DX Z (ip), vehicle: carboxymethylcellulose (CMC)) is reported as 121 % of control and the T/C (dose: 5.0 mg/kg/injection, schedule: Q01DX010 (ip), vehicle: saline) is reported as 108 % of control and 113 % of control. For the same compound, the T/C (dose: 6.0 mg/kg/injection, schedule: Q01DX Z (ip), vehicle: carboxymethylcellulose (CMC)) was 150 % of control.

`O=C(Nc1ccc(C2=NCCN2)cc1)c1ccc(C(=O)Nc2ccc(C3=NCCN3)cc2)c(Cl)c1` was tested, and the T/C (dose: 2.0 mg/kg/injection, schedule: Q01DX010 (ip), vehicle: other) was 98 % of control and 100 % of control, the T/C (dose: 4.0 mg/kg/injection, schedule: Q01DX010 (ip), vehicle: other) was 107 % of control and 110 % of control and the T/C (dose: 8.0 mg/kg/injection, schedule: Q01DX010 (ip), vehicle: other) was 107 % of control and 117 % of control. The T/C (dose: 16.0 mg/kg/injection, schedule: Q01DX010 (ip), vehicle: other) was 122 % of control and 107 % of control and the T/C (dose: 32.0 mg/kg/injection, schedule: Q01DX010 (ip), vehicle: other) was 120 % of control and 112 % of control.

`O=C1C(NC(=O)C2CCCCC2)=C(N2CC2)C(=O)C(NC(=O)C2CCCCC2)=C1N1CC1` was tested, and the T/C [5] was 98 % of control, the T/C [6] was 98 % of control and the T/C (dose: 18.0 mg/kg/injection, schedule: Q01DX Z (ip), vehicle: carboxymethylcellulose (CMC)) was 108 % of control. For the same compound, the T/C [7] was 93 % of control and 98 % of control, the T/C [3] was 97 % of control and the T/C [8] was 91 % of control. The T/C [9] was 90 % of control and 102 % of control, the T/C [4] was 100 % of control and the T/C (dose: 125.0 mg/kg/injection, schedule: Q01DX Z (ip), vehicle: carboxymethylcellulose (CMC)) was 121 % of control. For the same compound, the T/C (dose: 250.0 mg/kg/injection, schedule: Q01DX Z (ip), vehicle: carboxymethylcellulose (CMC)) was 122 % of control.

In the case of `Clc1ccc(C(c2ccccc2Cl)C(Cl)Cl)cc1` (stereo not drawn), the T/C (dose: 62.5 mg/kg/injection, schedule: Q01DX Z (sc), vehicle: steriod suspending solution) is reported as 102 % of control, the T/C (dose: 125.0 mg/kg/injection, schedule: Q01DX Z (sc), vehicle: steriod suspending solution) is reported as 104 % of control and the T/C (dose: 250.0 mg/kg/injection, schedule: Q01DX Z (sc), vehicle: steriod suspending solution) is reported as 93 % of control. For the same compound, the T/C (dose: 500.0 mg/kg/injection, schedule: Q01DX Z (sc), vehicle: steriod suspending solution) was 102 % of control, the T/C (dose: 750.0 mg/kg/injection, schedule: Q01DX Z (sc), vehicle: steriod suspending solution) was 100 % of control and the T/C (dose: 1000.0 mg/kg/injection, schedule: Q01DX Z (sc), vehicle: steriod suspending solution) was 95 % of control. The T/C (dose: 1200.0 mg/kg/injection, schedule: Q01DX Z (sc), vehicle: steriod suspending solution) was 94 % of control and the T/C (dose: 1500.0 mg/kg/injection, schedule: Q01DX Z (sc), vehicle: steriod suspending solution) was 91 % of control.

In the case of `O=C(Nc1cccc(C(=O)Nc2ccc(C3=NCCN3)cc2)c1)c1ccc(C2=NCCN2)cc1`, the T/C (dose: 54.0 mg/kg/injection, schedule: Q01DX010 (ip), vehicle: saline) is reported as 90 % of control.

In the case of `Clc1ncnc2nc[nH]c12`, the T/C [10] is reported as 94 % of control and 102 % of control, the T/C [1] is reported as 96 % of control and 105 % of control and the T/C [2] is reported as 120 % of control and 105 % of control. For the same compound, the T/C [8] was 115 % of control, the T/C (dose: 60.0 mg/kg/injection, schedule: Q01DX010 (ip), vehicle: saline) was 123 % of control and 110 % of control and the T/C (dose: 75.0 mg/kg/injection, schedule: Q01DX Z (ip), vehicle: carboxymethylcellulose (CMC)) was 114 % of control. For the same compound, the T/C (dose: 150.0 mg/kg/injection, schedule: Q01DX Z (ip), vehicle: carboxymethylcellulose (CMC)) was 150 % of control.

For `O=C(Nc1ccc(NC(=O)Nc2cccc(C3=NCCN3)c2)cc1)Nc1cccc(C2=NCCN2)c1`, the T/C (dose: 60.0 mg/kg/injection, schedule: Q01DX Z (ip), vehicle: carboxymethylcellulose (CMC)) was 96 % of control, the T/C (dose: 120.0 mg/kg/injection, schedule: Q01DX Z (ip), vehicle: carboxymethylcellulose (CMC)) was 106 % of control and the T/C (dose: 240.0 mg/kg/injection, schedule: Q01DX Z (ip), vehicle: carboxymethylcellulose (CMC)) was 106 % of control.

With `O=C(Nc1ccc(C(=O)Nc2ccc(C3=NCCCN3)cc2)cc1)Nc1ccc(C2=NCCCN2)cc1` the T/C (dose: 1.88 mg/kg/injection, schedule: Q01DX010 (ip), vehicle: saline) was 93 % of control and 108 % of control, the T/C (dose: 3.75 mg/kg/injection, schedule: Q01DX010 (ip), vehicle: saline) was 95 % of control and 114 % of control and the T/C [10] was 122 % of control and 119 % of control. The T/C [1] was 117 % of control.

With `C[C@]12C=CC(=O)C=C1CC[C@@H]1[C@@H]2[C@@H](O)C[C@@]2(C)[C@H]1CC[C@]2(O)C(=O)CO` the T/C (dose: 12.5 mg/kg/injection, schedule: Q01DX010 (sc), vehicle: steriod suspending solution) was 100 % of control, the T/C (dose: 25.0 mg/kg/injection, schedule: Q01DX010 (sc), vehicle: steriod suspending solution) was 100 % of control and the T/C (dose: 50.0 mg/kg/injection, schedule: Q01DX010 (sc), vehicle: steriod suspending solution) was 98 % of control. The T/C (dose: 100.0 mg/kg/injection, schedule: Q01DX010 (sc), vehicle: steriod suspending solution) was 95 % of control.

In the case of `CCCSc1ncnc2nc[nH]c12`, the T/C (dose: 31.3 mg/kg/injection, schedule: Q01DX010 (ip), vehicle: saline) is reported as 95 % of control and 99 % of control, the T/C (dose: 44.0 mg/kg/injection, schedule: Q01DX Z (ip), vehicle: other) is reported as 96 % of control and the T/C [11] is reported as 106 % of control and 111 % of control. For the same compound, the T/C (dose: 87.5 mg/kg/injection, schedule: Q01DX Z (ip), vehicle: other) was 121 % of control and the T/C [12] was 100 % of control and 111 % of control.

For `O=CN(O)CC(=O)O`, the T/C [12] was 93 % of control, the T/C (dose: 125.0 mg/kg/injection, schedule: Q01DX Z (ip), vehicle: saline) was 100 % of control and the T/C [13] was 93 % of control. For the same compound, the T/C (dose: 250.0 mg/kg/injection, schedule: Q01DX Z (ip), vehicle: saline) was 91 % of control, the T/C (dose: 375.0 mg/kg/injection, schedule: Q01DX Z (ip), vehicle: saline) was 101 % of control and the T/C [14] was 101 % of control. For the same compound, the T/C (dose: 500.0 mg/kg/injection, schedule: Q01DX Z (ip), vehicle: saline) was 97 % of control.

`O=c1[nH]c(=O)n(C2CC(O)C(CO)O2)cc1Br` (stereo not drawn) was tested, and the T/C (dose: 62.5 mg/kg/injection, schedule: Q01DX Z (ip), vehicle: carboxymethylcellulose (CMC)) was 110 % of control and the T/C (dose: 500.0 mg/kg/injection, schedule: Q01DX Z (ip), vehicle: carboxymethylcellulose (CMC)) was 119 % of control.

`S=P(N1CC1)(N1CC1)N1CC1` was tested, and the T/C (dose: 0.75 mg/kg/injection, schedule: Q01DX010 (ip), vehicle: saline) was 97 % of control and 115 % of control, the T/C (dose: 1.5 mg/kg/injection, schedule: Q01DX010 (ip), vehicle: saline) was 124 % of control and 105 % of control and the T/C (dose: 3.0 mg/kg/injection, schedule: Q01DX010 (ip), vehicle: saline) was 118 % of control. The T/C (dose: 6.0 mg/kg/injection, schedule: Q01DX010 (ip), vehicle: saline) was 94 % of control and 100 % of control.

In the case of `OCC1OC(n2cnc3c(Cl)ncnc32)C(O)C1O` (stereo not drawn), the T/C [11] is reported as 90 % of control and 99 % of control, the T/C [12] is reported as 96 % of control and 101 % of control and the T/C [13] is reported as 97 % of control and 103 % of control. The T/C [14] was 101 % of control and 106 % of control.

For `CS(=O)(=O)OCCCCOS(C)(=O)=O`, the T/C [5] was 98 % of control and 103 % of control, the T/C [6] was 100 % of control and 102 % of control and the T/C [7] was 93 % of control and 102 % of control. The T/C [9] was 98 % of control and 100 % of control.

In the case of `CNc1nc(Nc2ccc(C3=NCCN3)cc2)nc(Nc2ccc(C3=NCCN3)cc2)n1`, the T/C (dose: 13.3 mg/kg/injection, schedule: Q01DX010 (ip), vehicle: saline) is reported as 100 % of control, the T/C (dose: 20.0 mg/kg/injection, schedule: Q01DX010 (ip), vehicle: saline) is reported as 94 % of control and the T/C [2] is reported as 99 % of control. The T/C (dose: 45.0 mg/kg/injection, schedule: Q01DX010 (ip), vehicle: saline) was 97 % of control.
